Reference: article PMC3496014 (Journal of structural biology, 2012)
Where two headings read alike, the source gives them in different places.

Test system: PfAtg8 WT
Type: binding, P. falciparum
Conditions: for WTRU/NOISE (response divided by overall noise, WT): pH 8
[1] = ratio of WT to K19E/K47E normalized response, hit threshold at least 1.5

| SMILES | (WTRU/NOISE)/(MutRU/NOISE) | WTRU/NOISE (response divided by overall noise, WT) | (WTRU/NOISE)/(MutRU/NOISE) [1] |
| --- | --- | --- | --- |
| O=c1ccc2cc(O)c(O)cc2o1 [Fragment 268, 6,7-dihydroxycoumarin] | 3.73 | 1.79 | – |
| Oc1ccc(O)c(O)c1 [Fragment 408, 1,2,4-benzenetriol] | – | 5.33 | 3.56 |
| Oc1cccc(O)c1O [Fragment 410, 1,2,3-benzenetriol] | – | 22.79 | 6.19 |
| O=[N+]([O-])c1ccc(Cl)c2nonc12 [Fragment 470, 4-chloro-7-nitrobenzofurazan] | – | – | 1.52 |
| O=[N+]([O-])c1ccc(O)c(O)c1 [Fragment 537, 4-nitrocatechol] | – | 2.39 | 1.90 |
| O=C1CC(=O)c2ccccc21 [Fragment 792, 1,3-indandione] | – | 2.38 | 2.15 |
